Active and inactive are the calls of the source. The rule behind the calls is not given here.
Key:
COS-7 [1] = assay: Inhibition of autophagy in African green monkey COS-7 cells at 20 uM by flow cytometry analysis relative to control; assay type: functional; conditions: Chlorocebus aethiops
[2] = Inhibition of ATG5-TECAIR (unknown origin) protein protein interaction expressed in Escherichia coli BL21 (DE3) by HTRF method; set-up: species or system Homo sapiens
[3] = Inhibition of ATG5-ATG16L1 (unknown origin) protein protein interaction expressed in Escherichia coli BL21 (DE3) by HTRF method; set-up: species or system Homo sapiens
COS-7 [4] = assay: Inhibition of autophagy in African green monkey COS-7 cells assessed as effect on LC3 level at upto 40 uM by flow cytometry analysis; assay type: functional, cell-based; conditions: Chlorocebus aethiops

SMILES	inhibition at 20 µM (COS-7 [1])	IC50 ([2]; read-out: IC50)	IC50 ([3]; read-out: IC50)	inhibition (COS-7 [4])	IC50 [3]	IC50 [2]
O=C(O)c1cccc(CN2C(=O)/C(=C/c3ccc(-c4ccc([N+](=O)[O-])cc4)o3)C=C2c2ccccc2)c1	8.1%	21.3 µM	> 33 µM			
CCN(CCO)CCCC(C)Nc1ccnc2cc(Cl)ccc12 (centres undefined)				inactive		
Cc1cc(-c2ccc(/C=C3\C(=O)N(c4ccc(C(=O)O)cc4)N=C3C3CC3)s2)c(C(F)(F)F)cc1C		> 33 µM	> 33 µM			
CC1=NN(c2ccccc2)C(=O)/C1=C\c1ccc(-c2cc(C)c(C)cc2[N+](=O)[O-])o1		> 33 µM			Not Active	
CC1=NN(c2ccc(C(=O)O)cc2)C(=O)C1Cc1ccc(-c2ccc([N+](=O)[O-])cc2)s1 (centres undefined)		> 33 µM	> 33 µM			
CC1=NN(c2ccc(C(=O)O)cc2)C(=O)C1Cc1ccc(-c2cccc([N+](=O)[O-])c2)s1 (centres undefined)		> 33 µM			Not Active	
CC1=NN(c2ccc(C(=O)O)cc2)C(=O)/C1=C\c1ccc(-c2ccc([N+](=O)[O-])cc2)s1		6.08 µM	5.24 µM			
NC(=O)c1cccc(-c2ccc(/C=C3\C=C(c4ccccc4)N(Cc4ccc(C(=O)O)cc4)C3=O)o2)c1	8.3%	> 33 µM			Not Active	
CCCCN1C(=O)/C(=C/c2ccc(-c3ccc([N+](=O)[O-])cc3)o2)C=C1c1ccccc1	77.8%					
CC(=O)c1ccc(-c2ccc(/C=C3\C=C(c4ccccc4)N(Cc4ccc(C(=O)O)cc4)C3=O)o2)cc1	14.6%	16.3 µM	26.9 µM			
CCN(CC)CCCC(C)Nc1ccnc2cc(Cl)ccc12 (centres undefined) [CHLOROQUINE]		28 µM	37 µM			
COC(=O)c1ccc(CN2C(=O)/C(=C/c3ccc(-c4ccc([N+](=O)[O-])cc4)o3)C=C2c2ccccc2)cc1	59.8%				Not Active	Not Active
CS(=O)(=O)c1ccc(-c2ccc(/C=C3\C=C(c4ccccc4)N(Cc4ccc(C(=O)O)cc4)C3=O)o2)cc1	53.7%	> 33 µM			Not Active	
O=C(O)c1ccc(CN2C(=O)/C(=C/c3ccc(-c4ccccc4)o3)C=C2c2ccccc2)cc1	20.6%	> 33 µM	> 33 µM			
CC(=O)Nc1ccc(-c2ccc(/C=C3\C=C(c4ccccc4)N(Cc4ccc(C(=O)O)cc4)C3=O)o2)cc1	5.02%	12 µM	12.8 µM			
CC1=NN(c2ccc(C(=O)O)cc2)C(=O)C1Cc1ccc(-c2cc(C)c(C)cc2[N+](=O)[O-])s1 (centres undefined)		> 33 µM			Not Active	
O=C1/C(=C/c2ccc(-c3ccc([N+](=O)[O-])cc3)o2)C=C(c2ccccc2)N1Cc1ccc(C(F)(F)F)cc1	87.7%				Not Active	Not Active
COc1ccc(-c2ccc(/C=C3\C=C(c4ccccc4)N(c4ccc(C(=O)O)cc4)C3=O)o2)cc1	96.6%	16 µM	25 µM			
O=C(O)c1ccc(N2C(=O)/C(=C/c3ccc(-c4ccc(O)cc4)o3)C=C2c2ccccc2)cc1	97.1%	> 33 µM	> 33 µM			
O=C(O)c1ccc(N2C(=O)/C(=C/c3ccc(-c4cc(F)c(F)c(F)c4)s3)C=C2c2ccccc2)cc1	97.6%	22 µM	12 µM			
O=C(O)c1ccc(CN2C(=O)/C(=C/c3ccc(-c4cccc([N+](=O)[O-])c4)o3)C=C2c2ccccc2)cc1	36%	10.5 µM	6.14 µM			
O=C(O)c1ccc(CN2C(=O)/C(=C/c3ccc(-c4ccc([N+](=O)[O-])cc4)o3)C=C2c2ccccc2)cc1	5.88%	3.68 µM	2.29 µM			
O=C(O)CCN1C(=O)/C(=C/c2ccc(-c3ccc([N+](=O)[O-])cc3)o2)C=C1c1ccccc1	21.4%	17.2 µM	> 100 µM			
O=C(O)CCN1C(=O)/C(=C\c2ccc(-c3ccc([N+](=O)[O-])cc3)o2)SC1=S		19 µM	27 µM			
CC1=NN(c2ccc(C(=O)O)cc2)C(=O)/C1=C\c1ccc(-c2cc(C)c(C)cc2[N+](=O)[O-])o1		> 33 µM	> 33 µM			
CC1=NN(c2ccc(C(=O)O)cc2)C(=O)/C1=C\c1ccc(-c2ccccc2P(C)(C)=O)o1					Not Active	Not Active
CC1=NN(c2ccc(C(=O)O)cc2)C(=O)/C1=C\c1ccc(-c2cc(C)c(C)cc2C(F)(F)F)o1		31.1 µM	> 33 µM			
O=C(O)c1ccc(N2C(=O)/C(=C/c3ccc(-c4ccc(Br)cc4)o3)C=C2c2ccccc2)cc1	97.3%	19 µM	> 33 µM			
O=C(O)CCN1C(=O)/C(=C/c2ccc(-c3ccc([N+](=O)[O-])cc3Cl)o2)SC1=S		23 µM	16 µM			
COC(=O)CCCN1C(=O)/C(=C/c2ccc(-c3ccc([N+](=O)[O-])cc3)o2)C=C1c1ccccc1	74.5%				Not Active	Not Active

Reference: ChEMBL document CHEMBL5380800, “Discovery of Small-Molecule Autophagy Inhibitors by Disrupting the Protein-Protein Interactions Involving Autophagy-Related 5” (J Med Chem, 2023)
